Test results published in patent US9802937B2, “Substituted pyrazolo{4,3-D}pyrimidines as kinase inhibitors” (ORIGENIS GMBH, priority 2011, dated 2017).

What was measured:
LRRK2 = LRRK2 (Homo sapiens, UniProt Q5S007); experiment: LRRK2-LRRK2 G2019S-Assay (LanthaScreen Eu Kinase Binding Assay); details: 5 nM LRRK2 or their mutants, 10 nM tracer 236, RT 1 h; read-out: LRRK2 Activities: IC50
Procedure, shortened: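 TR-FRET tracer-displacement binding assay with 5 nM LRRK2 or mutant, 2 nM Eu-anti-GST antibody and 10 nM tracer 236 in kinase buffer A. Incubated 1 h at RT; 665/615 nm emission ratio read (ex 340 nm). IC50 from variable-slope sigmoidal fit.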

SYK kinase = target: T1, SYK kinase (Homo sapiens, UniProt P43405); experiment: SYK Assay (OMNIA KINASE ASSAY, SOX peptide fluorescence); assay type: biochemical; details: apparent Ki calculated from the IC50 using the Cheng-Prusoff equation; 1 mM ATP, 30° C.; read-out: SYK Activities: Ki
T1 construct: purchased Invitrogen, Carlsbad
Procedure, shortened: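 Continuous Omnia assay: SYK phosphorylation of SOX-labelled Tyr 7 peptide (10 µM) with 1 mM ATP and 0.2 mM DTT at 30 °C. Fluorescence (ex 360/em 485 nm) read every 30 s for 30 min. Reaction velocity versus inhibitor concentration gives IC50, converted to apparent Ki by Cheng-Prusoff.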

MYLK = MYLK (Homo sapiens, UniProt Q15746); experiment: MYLK Assay (LanthaScreen Eu Kinase Binding Assay); details: 5 nM MYLK, 30 nM tracer 236, RT 1 h; read-out: MYLK Activities: IC50
Chain of MYLK (Q15746 whole entry): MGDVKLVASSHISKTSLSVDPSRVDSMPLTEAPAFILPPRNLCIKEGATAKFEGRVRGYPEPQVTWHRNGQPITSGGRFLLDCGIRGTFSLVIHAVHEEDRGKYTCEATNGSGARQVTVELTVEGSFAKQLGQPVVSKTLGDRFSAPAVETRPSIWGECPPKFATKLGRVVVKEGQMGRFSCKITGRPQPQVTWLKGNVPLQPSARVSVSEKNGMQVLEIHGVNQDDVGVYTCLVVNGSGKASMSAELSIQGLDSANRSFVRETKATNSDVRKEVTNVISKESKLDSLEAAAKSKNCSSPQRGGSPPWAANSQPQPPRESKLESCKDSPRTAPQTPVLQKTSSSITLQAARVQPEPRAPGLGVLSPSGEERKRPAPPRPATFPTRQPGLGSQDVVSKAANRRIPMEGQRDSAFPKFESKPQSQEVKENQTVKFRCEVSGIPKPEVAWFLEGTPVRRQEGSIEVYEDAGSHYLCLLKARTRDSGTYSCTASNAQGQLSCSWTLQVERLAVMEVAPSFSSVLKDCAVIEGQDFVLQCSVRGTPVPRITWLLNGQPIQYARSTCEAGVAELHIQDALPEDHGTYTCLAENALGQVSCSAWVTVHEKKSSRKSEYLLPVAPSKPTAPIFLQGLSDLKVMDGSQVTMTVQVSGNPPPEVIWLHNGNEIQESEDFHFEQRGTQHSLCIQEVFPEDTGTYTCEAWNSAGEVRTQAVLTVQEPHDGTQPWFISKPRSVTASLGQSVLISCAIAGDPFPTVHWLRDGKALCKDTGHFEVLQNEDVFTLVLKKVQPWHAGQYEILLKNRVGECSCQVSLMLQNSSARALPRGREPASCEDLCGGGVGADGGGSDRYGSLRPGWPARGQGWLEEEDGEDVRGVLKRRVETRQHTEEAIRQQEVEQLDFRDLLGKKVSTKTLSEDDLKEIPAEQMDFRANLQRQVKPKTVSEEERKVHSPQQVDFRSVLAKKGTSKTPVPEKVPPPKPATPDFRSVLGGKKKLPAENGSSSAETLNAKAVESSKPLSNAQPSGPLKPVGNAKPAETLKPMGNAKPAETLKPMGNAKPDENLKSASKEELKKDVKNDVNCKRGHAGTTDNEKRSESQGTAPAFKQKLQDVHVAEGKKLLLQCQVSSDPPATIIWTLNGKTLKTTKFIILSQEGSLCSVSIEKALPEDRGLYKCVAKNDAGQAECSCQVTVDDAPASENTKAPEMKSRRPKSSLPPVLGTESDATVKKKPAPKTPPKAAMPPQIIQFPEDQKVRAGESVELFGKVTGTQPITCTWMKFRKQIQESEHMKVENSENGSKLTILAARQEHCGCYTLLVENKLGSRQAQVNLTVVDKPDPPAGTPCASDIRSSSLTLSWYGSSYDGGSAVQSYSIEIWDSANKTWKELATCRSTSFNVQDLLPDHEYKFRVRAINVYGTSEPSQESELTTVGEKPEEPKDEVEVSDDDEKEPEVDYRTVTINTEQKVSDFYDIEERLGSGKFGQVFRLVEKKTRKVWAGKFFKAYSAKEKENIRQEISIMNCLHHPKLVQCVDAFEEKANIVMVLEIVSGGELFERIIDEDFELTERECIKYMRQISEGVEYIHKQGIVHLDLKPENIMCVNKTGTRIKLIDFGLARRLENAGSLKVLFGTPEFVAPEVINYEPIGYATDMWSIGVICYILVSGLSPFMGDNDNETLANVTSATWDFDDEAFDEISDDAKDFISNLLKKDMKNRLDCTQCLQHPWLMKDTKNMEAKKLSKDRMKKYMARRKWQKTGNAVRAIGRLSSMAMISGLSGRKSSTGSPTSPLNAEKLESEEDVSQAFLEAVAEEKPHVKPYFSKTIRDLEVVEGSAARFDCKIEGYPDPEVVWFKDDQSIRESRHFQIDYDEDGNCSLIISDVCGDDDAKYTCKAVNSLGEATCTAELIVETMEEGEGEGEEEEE
Description: In the assay LanthaScreen™ Eu Kinase Binding Assay by Invitrogen Corporation (Carlsbad) the effect of invention of a compound on the phosphorylation is determined by measurement of fluorescence intensity emission ratio based on the binding and displacement of a proprietary, Alexa Fluor® 647-labeled, ATP-competitive kinase inhibitor scaffold (kinase tracer) to the kinase of interest as described above.
To the wells of an 384 well small volume plate (Greiner, Frickenhausen) are added (i) the compound under test in 5% is DMSO/distilled water (5 μl), (ii) 5 μl of the kinase antibody mixture resulting in a final concentration 5 nM MYLK, 2 nM EU-Anti-GST antibody in 1× kinase buffer A. The reaction was started with addition of (iii) 5 μl resulting in a final concentration of 30 nM tracer 236. The assay plate was incubated at RT for 1 h and fluorescence intensity readings were collected using a TECAN M1000 at two wavelengths of λex 340/λem 615 nm and λex 340/λem 665 nm with a delay time of 100 μs and an integration time of 200 μs after 60 minutes. The emission ratio was calculated by division of the acceptor/tracer emission ([…]) by the antibody/donor emission ([…]). The inhibitor concentration was plotted versus the emission ratio to determine the IC50 using XLFit 5.0 (IDBS, Guildford) to fit to a sigmoidal dose response curve with a variable slope.

Chain of LRRK2 (Q5S007 970-2527 limits assumed): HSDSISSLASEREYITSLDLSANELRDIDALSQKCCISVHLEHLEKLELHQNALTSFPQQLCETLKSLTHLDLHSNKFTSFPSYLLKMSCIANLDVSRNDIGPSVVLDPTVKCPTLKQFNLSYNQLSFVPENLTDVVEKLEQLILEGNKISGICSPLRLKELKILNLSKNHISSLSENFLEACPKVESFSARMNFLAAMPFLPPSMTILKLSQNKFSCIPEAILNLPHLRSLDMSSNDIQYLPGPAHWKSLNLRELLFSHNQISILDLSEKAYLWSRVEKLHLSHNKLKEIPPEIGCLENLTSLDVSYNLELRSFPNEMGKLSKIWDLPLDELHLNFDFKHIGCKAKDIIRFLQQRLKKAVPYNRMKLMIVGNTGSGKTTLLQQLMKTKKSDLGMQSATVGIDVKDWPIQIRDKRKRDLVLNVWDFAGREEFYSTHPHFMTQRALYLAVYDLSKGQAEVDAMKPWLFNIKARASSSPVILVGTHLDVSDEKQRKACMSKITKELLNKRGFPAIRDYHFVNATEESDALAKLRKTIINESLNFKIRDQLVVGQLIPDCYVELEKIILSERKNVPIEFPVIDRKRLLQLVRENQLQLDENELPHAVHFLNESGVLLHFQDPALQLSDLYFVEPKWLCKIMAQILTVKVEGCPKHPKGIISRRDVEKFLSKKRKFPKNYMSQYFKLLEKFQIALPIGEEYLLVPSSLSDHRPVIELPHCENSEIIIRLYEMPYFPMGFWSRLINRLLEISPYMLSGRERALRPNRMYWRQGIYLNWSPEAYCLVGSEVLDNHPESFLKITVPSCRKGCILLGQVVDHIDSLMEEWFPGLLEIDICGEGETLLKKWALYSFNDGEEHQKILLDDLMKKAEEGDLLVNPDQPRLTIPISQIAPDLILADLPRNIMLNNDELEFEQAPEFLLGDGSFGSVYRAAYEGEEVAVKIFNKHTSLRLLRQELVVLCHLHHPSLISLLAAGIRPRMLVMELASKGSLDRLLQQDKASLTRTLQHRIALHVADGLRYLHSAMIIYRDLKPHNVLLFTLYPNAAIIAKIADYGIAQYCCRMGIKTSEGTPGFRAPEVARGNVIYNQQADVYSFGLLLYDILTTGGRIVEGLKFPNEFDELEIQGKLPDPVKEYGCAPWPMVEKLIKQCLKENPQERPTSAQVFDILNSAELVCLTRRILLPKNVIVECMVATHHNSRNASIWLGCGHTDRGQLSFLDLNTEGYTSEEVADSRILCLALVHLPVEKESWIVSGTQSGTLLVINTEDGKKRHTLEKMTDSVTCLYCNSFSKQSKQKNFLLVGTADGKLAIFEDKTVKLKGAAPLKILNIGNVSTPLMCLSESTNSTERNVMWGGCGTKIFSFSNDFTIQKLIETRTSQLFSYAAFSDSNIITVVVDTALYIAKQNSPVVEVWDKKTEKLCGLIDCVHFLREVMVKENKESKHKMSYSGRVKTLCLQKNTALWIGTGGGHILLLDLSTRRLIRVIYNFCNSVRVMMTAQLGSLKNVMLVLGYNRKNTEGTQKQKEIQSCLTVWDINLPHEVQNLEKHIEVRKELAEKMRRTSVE

Compound	IC50 (LRRK2) [nM]	Ki (SYK kinase) [nM]	IC50 (MYLK) [nM]
COc1cccc(Nc2nc(-c3ccccc3)nc3cn[nH]c23)c1 [Example #8, N-(3-methoxyphenyl)-5-phenyl-1H-pyrazolo[4,3-d]pyrimidin-7-amine]		10 to 100	< 5000
O=C1COc2ccc(Nc3nc(-c4ccncc4)nc4cn[nH]c34)cc2N1 [Example #21, 6-((5-(pyridin-4-yl)-1H-pyrazolo[4,3-d]pyrimidin-7-yl)amino)-2H-benzo[b][1,4]oxazin-3(4H)-one]	100 to 1000	100 to 1000	< 5000
c1cc(Nc2nc(-c3cc[nH]n3)nc3cn[nH]c23)n[nH]1 [Example #45, N,5-di(1H-pyrazol-3-yl)-1H-pyrazolo[4,3-d]pyrimidin-7-amine]		100 to 1000	< 5000
c1ccc(-c2nc(Nc3cc(C4CC4)[nH]n3)c3[nH]ncc3n2)cc1 [Example #57, N-(5-cyclopropyl-1H-pyrazol-3-yl)-5-phenyl-1H-pyrazolo[4,3-d]pyrimidin-7-amine]		10 to 100	< 5000
Cc1nc2cc(Nc3nc(-c4cccc(S(C)(=O)=O)c4)nc4cn[nH]c34)ccc2[nH]1 [Example #252, N-(2-methyl-1H-benzo[d]imidazol-5-yl)-5-(3-(methylsulfonyl)phenyl)-1H-pyrazolo[4,3-d]pyrimidin-7-amine]		10 to 100	< 5000
O=S(=O)(CCO)c1cccc(Nc2nc(-c3cccs3)nc3cn[nH]c23)c1 [Example #255, 2-((3-((5-(thiophen-2-yl)-1H-pyrazolo[4,3-d]pyrimidin-7-yl)amino)phenyl)sulfonyl)ethan-1-ol]		100 to 1000	< 5000
CS(=O)(=O)c1cccc(Nc2nc(-c3ccccc3F)nc3cn[nH]c23)c1 [Example #276, 5-(2-fluorophenyl)-N-(3-(methylsulfonyl)phenyl)-1H-pyrazolo[4,3-d]pyrimidin-7-amine]		10 to 100	< 5000
CS(=O)(=O)c1ccccc1Nc1nc(-c2ccccc2F)nc2cn[nH]c12 [Example #277, 5-(2-fluorophenyl)-N-(2-(methylsulfonyl)phenyl)-1H-pyrazolo[4,3-d]pyrimidin-7-amine]		100 to 1000	< 5000
Fc1cccc(F)c1-c1nc(Nc2ccc(N3CCN(C4CC4)CC3)cc2)c2[nH]ncc2n1 [Example #283, N-(4-(4-cyclopropylpiperazin-1-yl)phenyl)-5-(2,6-difluorophenyl)-1H-pyrazolo[4,3-d]pyrimidin-7-amine]	100 to 1000	10 to 100	
Fc1ccc(-c2nc(Nc3ccc(N4CCOCC4)cc3)c3[nH]ncc3n2)c(F)c1 [Example #286, 5-(2,4-difluorophenyl)-N-(4-morpholinophenyl)-1H-pyrazolo[4,3-d]pyrimidin-7-amine]		10 to 100	< 5000
O=C1COc2ccc(-c3nc(Nc4ccc(N5CCOCC5)cc4)c4[nH]ncc4n3)cc2N1 [Example #288, 6-(7-((4-morpholinophenyl)amino)-1H-pyrazolo[4,3-d]pyrimidin-5-yl)-2H-benzo[b][1,4]oxazin-3(4H)-one]		10 to 100	< 5000
Cc1nc2cc(Nc3nc(-c4ccc5c(c4)NC(=O)CO5)nc4cn[nH]c34)ccc2[nH]1 [Example #289, 6-(7-((2-methyl-1H-benzo[d]imidazol-5-yl)amino)-1H-pyrazolo[4,3-d]pyrimidin-5-yl)-2H-benzo[b][1,4]oxazin-3(4H)-one]		10 to 100	< 5000
Fc1cc(Nc2nc(-c3cccs3)nc3cn[nH]c23)ccc1N1CCOCC1 [Example #296, N-(3-fluoro-4-morpholinophenyl)-5-(thiophen-2-yl)-1H-pyrazolo[4,3-d]pyrimidin-7-amine]	100 to 1000	< 10	
CN1CCN(C2CCN(C(=O)c3ccc(Nc4nc(-c5cccs5)nc5cn[nH]c45)cc3)CC2)CC1 [Example #297, (4-(4-methylpiperazin-1-yl)piperidin-1-yl)(4-((5-(thiophen-2-yl)-1H-pyrazolo[4,3-d]pyrimidin-7-yl)amino)phenyl)methanone]	10 to 100	< 10	
COc1ccc(Nc2nc(-c3ccc4c(c3)NCCO4)nc3cn[nH]c23)cc1OC [Example #300, 5-(3,4-dihydro-2H-benzo[b][1,4]oxazin-6-yl)-N-(3,4-dimethoxyphenyl)-1H-pyrazolo[4,3-d]pyrimidin-7-amine]	100 to 1000	< 10	
c1cc(N2CCOCC2)ccc1Nc1nc(-c2ccc3c(c2)NCCO3)nc2cn[nH]c12 [Example #301, 5-(3,4-dihydro-2H-benzo[b][1,4]oxazin-6-yl)-N-(4-morpholinophenyl)-1H-pyrazolo[4,3-d]pyrimidin-7-amine]	100 to 1000	10 to 100	
Cc1nc2cc(Nc3nc(-c4ccc5c(c4)NCCO5)nc4cn[nH]c34)ccc2[nH]1 [Example #302, 5-(3,4-dihydro-2H-benzo[b][1,4]oxazin-6-yl)-N-(2-methyl-1H-benzo[d]imidazol-5-yl)-1H-pyrazolo[4,3-d]pyrimidin-7-amine]	100 to 1000	< 10	
CN1Cc2ccc(Nc3nc(-c4cccs4)nc4cn[nH]c34)cc2C1 [Example #303, N-(2-methylisoindolin-5-yl)-5-(thiophen-2-yl)-1H-pyrazolo[4,3-d]pyrimidin-7-amine]	100 to 1000	< 10	
c1csc(-c2nc(Nc3ccc4c(c3)COC4)c3[nH]ncc3n2)c1 [Example #304, N-(1,3-dihydroisobenzofuran-5-yl)-5-(thiophen-2-yl)-1H-pyrazolo[4,3-d]pyrimidin-7-amine]	100 to 1000	< 10	
CN(C)Cc1ccc(Nc2nc(-c3ccccc3F)nc3cn[nH]c23)cc1 [Example #311, N-(4-((dimethylamino)methyl)phenyl)-5-(2-fluorophenyl)-1H-pyrazolo[4,3-d]pyrimidin-7-amine]	100 to 1000	10 to 100	

Now from value to compound:

IC50 (LRRK2) [nM]	Ki (SYK kinase) [nM]	IC50 (MYLK) [nM]	Compound
100 to 1000	< 10	< 5000	NC(=O)c1cccc(Nc2nc(-c3ccccc3)nc3cn[nH]c23)c1 [Example #5, 3-((5-phenyl-1H-pyrazolo[4,3-d]pyrimidin-7-yl)amino)benzamide]
100 to 1000	< 10	< 5000	CN1CCN(c2ccc(Nc3nc(-c4ccncc4)nc4cn[nH]c34)cc2)CC1 [Example #20, N-(4-(4-methylpiperazin-1-yl)phenyl)-5-(pyridin-4-yl)-1H-pyrazolo[4,3-d]pyrimidin-7-amine]
100 to 1000	< 10	< 5000	COc1ccc(-c2nc(Nc3ccc(N4CCN(C)CC4)cc3)c3[nH]ncc3n2)cc1OC [Example #34, 5-(3,4-dimethoxyphenyl)-N-(4-(4-methylpiperazin-1-yl)phenyl)-1H-pyrazolo[4,3-d]pyrimidin-7-amine]
100 to 1000	< 10	< 5000	CN1CCN(c2ccc(Nc3nc(-c4ccccc4)nc4cn[nH]c34)cc2)CC1 [Example #35, N-(4-(4-methylpiperazin-1-yl)phenyl)-5-phenyl-1H-pyrazolo[4,3-d]pyrimidin-7-amine]
10 to 100	< 10	< 5000	CN1CCN(c2ccc(Nc3nc(-c4ccc(N5CCCC5)nc4)nc4cn[nH]c34)cc2)CC1 [Example #46, N-(4-(4-methylpiperazin-1-yl)phenyl)-5-(6-(pyrrolidin-1-yl)pyridin-3-yl)-1H-pyrazolo[4,3-d]pyrimidin-7-amine]
100 to 1000	< 10	< 5000	COc1ccc(-c2nc(Nc3ccc(OC)c(OC)c3)c3[nH]ncc3n2)cc1 [Example #58, N-(3,4-dimethoxyphenyl)-5-(4-methoxyphenyl)-1H-pyrazolo[4,3-d]pyrimidin-7-amine]
	< 10	< 5000	COc1ccc(-c2nc(Nc3ccc(C(=O)N4CCCC4)cc3)c3[nH]ncc3n2)cc1 [Example #160, (4-((5-(4-methoxyphenyl)-1H-pyrazolo[4,3-d]pyrimidin-7-yl)amino)phenyl)(pyrrolidin-1-yl)methanone]
	< 10	< 5000	CN1CCN(c2ccc(Nc3nc(-c4cc(C(=O)O)cs4)nc4cn[nH]c34)cc2)CC1 [Example #175, 5-(7-((4-(4-methylpiperazin-1-yl)phenyl)amino)-1H-pyrazolo[4,3-d]pyrimidin-5-yl)thiophene-3-carboxylic acid]
	< 10	< 5000	CN1CCN(c2ccc(Nc3nc(-c4ccc(C(=O)O)cc4)nc4cn[nH]c34)cc2)CC1 [Example #241, 4-(7-((4-(4-methylpiperazin-1-yl)phenyl)amino)-1H-pyrazolo[4,3-d]pyrimidin-5-yl)benzoic acid]
